{"source": "patent US20170150719A1", "about": "“FUNGICIDAL PYRAZOLES AND THEIR MIXTURES” (E I DU PONT DE NEMOURS AND COMPANY, priority 2010, published 2017)", "key": {"[1]": {"test_system": "Puccinia recondita f. sp. tritici", "experiment": "Test G: wheat leaf rust, spray after inoculation (curative) on wheat seedlings, visual disease rating", "format": "in vivo", "details": "sprayed after inoculation, 100 = 100% disease control, 0 = no disease control", "from_the_text": "(§1) A hyphen (-) indicates no test results."}, "Phytophthora infestans": {"test_system": "Phytophthora infestans", "experiment": "whole plant or invertebrate", "format": "in vivo", "details": "Phytophthora infestans, in Solanum lycopersicum, read-out: Test C rating (disease control)"}, "Septoria nodorum": {"test_system": "Septoria nodorum", "experiment": "Test E: Septoria glume blotch, preventive spray on wheat seedlings, visual disease rating", "details": "Parastagonospora nodorum, in Triticum aestivum, read-out: Test E rating (disease control), Septoria glume blotch; 100 = 100% disease control, 0 = no disease control relative to the controls"}, "[2]": {"test_system": "Blumeria graminis f. sp. tritici", "experiment": "Test I: wheat powdery mildew, preventive spray on wheat seedlings, visual disease rating", "details": "Blumeria graminis, in Triticum aestivum, read-out: Test I rating (disease control), wheat powdery mildew; 100 = 100% disease control, 0 = no disease control relative to the controls"}, "[3]": {"test_system": "Puccinia recondita f. sp. tritici", "experiment": "Test H: wheat leaf rust, preventive spray on wheat seedlings, visual disease rating", "details": "read-out: Test H rating (disease control), wheat leaf rust, sprayed the day before inoculation; 100 = 100% disease control, 0 = no disease control", "description": "General protocol for preparing test suspensions for Tests A-I: the test compounds were first dissolved in acetone in an amount equal to 3% of the final volume and then suspended at the desired concentration (in ppm) in acetone and purified water (50/50 mix by volume) containing 250 ppm of the surfactant Trem® 014 (polyhydric alcohol esters). The resulting test suspensions were then used in Tests A-I. Each test was conducted in triplicate, and the results were averaged. Spraying a 200 ppm test suspension to the point of run-off on the test plants was the equivalent of a rate of about 800 g/ha. Unless otherwise indicated, the rating values indicate a 200 ppm test suspension was used. (An asterisk “*” next to the rating value indicates a 40 ppm test suspension was used.)\nThe test suspension was sprayed to the point of run-off on wheat seedlings. The following day the seedlings were inoculated with a spore suspension of Puccinia recondita f. sp. tritici (the causal agent of wheat leaf rust) and incubated in a saturated atmosphere at 20° C. for 24 h, and then moved to a growth chamber at 20° C. for 6 days, after which time visual disease ratings were made."}, "Septoria tritici [4]": {"test_system": "Septoria tritici", "experiment": "Test M (M1-M5): wheat leaf blotch, Compound 81 alone and in mixtures, observed and Colby expected control", "format": "in vivo"}, "Alternaria solani": {"test_system": "Alternaria solani", "experiment": "Test B: tomato early blight, preventive spray on tomato seedlings, visual disease rating", "details": "Alternaria solani, in Solanum lycopersicum, read-out: Test B rating (disease control)"}, "Septoria tritici [5]": {"test_system": "Septoria tritici", "experiment": "Tests N1 and N2: growth inhibition of Septoria tritici on solid medium in 96-well plates, absorbance at 600 nm, observed and Colby expected", "format": "cell-based", "details": "Zymoseptoria tritici; for inhibition at 0.00032 µM: Compound 81 alone 0.00032 μM; for inhibition at 0.0016 µM: Compound 81 alone 0.0016 μM; for inhibition at 0.008 µM: Compound 81 alone 0.008 μM; for inhibition at 0.04 µM: Compound 81 alone 0.04 μM; for inhibition at 0.2 µM: Compound 81 alone 0.2 μM", "from_the_text": "Tests N1 and N2 involved evaluation of mixtures of Compound 81 with 2-[(3-bromo-8-methyl-6-quinolinyl)oxy]-N-(1,1-dimethyl-2-propyn-1-yl)-2-(methylthio)acetamide (Compound A1) and 2-[(3-bromo-6-quinolinyl)oxy]-N-(1,1-dimethylethyl)butanamide (Compound A2), respectively, for inhibiting the growth of Septoria tritici (the causal agent of wheat leaf blotch). The general protocol for preparing test compositions was as follows. Compound 81 (Tests N1 and N2), Compound A1 (Test N1) and Compound A2 (Test N2) were obtained as unformulated, technical-grade materials. Unformulated test compounds were first dissolved in DMSO at the appropriate concentration to provide the desired concentration (in μM) after mixing with the fungal growth medium in the wells of 96-well plates containing 200 μL fungal growth medium per well. The ranges of compound concentrations were chosen to span a range of inhibitory activity from 0 to near 100% to identify any synergistic action when Septoria tritici was treated with compounds added in combination. The DMSO solutions of the test compounds were added to the wells prior to addition of the fungal growth medium.\nThe fungal growth solid medium was prepared by forming an aqueous mixture containing dipotassium hydrogen phosphate (3.0 g/L), potassium dihydrogen phosphate (4.0 g/L), sodium chloride (0.5 g/L), ammonium chloride (1.0 g/L), magnesium sulfate heptahydrate ([…]) and calcium chloride dihydrate (0.01 g/L), also containing 1 mL/L of a trace element solution (manganese sulfate hydrate (0.1 mg/mL), zinc sulfate heptahydrate (0.2 mg/mL), copper(II) sulfate pentahydrate (0.2 mg/mL), iron(II) sulfate heptahydrate (0.2 mg/mL), sodium molybdate dihydrate (0.1 mg/mL), cobalt(II) sulfate heptahydrate (0.06 mg/mL), boric acid (0.08 mg/mL)), and supplemented with 50 μL/L of a biotin stock solution (0.1 mg/mL). The pH was adjusted to 6.8 with aqueous 1 M sodium carbonate solution. The mixture was further supplemented with 1 g/L of yeast extract, and GELRITE gellan gum (Kelco) (4 g/L) was added. Sufficient water was added to bring the volume to 90% of final volume (e.g., 900 mL volume for preparation of 1 L of fungal growth medium). The mixture was autoclaved. On cooling to 60° C., 100 mL/L of aqueous dextrose solution (10 g/L), 500 μL/L of aqueous ampicillin solution (100 mg/mL) and 500 μL/L of rifampicin solution (10 mg/mL in DMSO) were added to provide the final volume of fungal growth medium, which was then dispensed while still warm using a microliter pipette to the wells of the 96-well plates. The dispensed fungal growth medium in each well was agitated using the tip of the dispensing pipette to mix it with the DMSO solution containing the test compounds.\nAfter the fungal growth medium in the wells had cooled to room temperature and solidified, the top surface of the growth medium in each well was inoculated with 20 μL of a suspension of fungus containing 8×10^4 cells. Following a 2 h period of drying in a sterile hood, plates were placed in a dark incubator at 25° C. for 5 d.\nFungal growth was assessed on a plate reader set to measure absorbance of 600 nm light. The percent growth inhibition observed (Obsd.) in Tests N1 and N2, as well as the percent growth inhibition expected (Exp.) from calculation using the Colby equation, are listed in Tables L and M, respectively."}, "Botrytis cinerea": {"test_system": "Botrytis cinerea", "experiment": "Test A: tomato Botrytis, preventive spray on tomato seedlings, visual disease rating", "details": "Botrytis cinerea, in Solanum lycopersicum, read-out: Test A rating (disease control), tomato Botrytis; 100 = 100% disease control, 0 = no disease control relative to the controls"}, "Septoria tritici [6]": {"test_system": "Septoria tritici", "experiment": "Test F: wheat leaf blotch, preventive spray on wheat seedlings, visual disease rating", "format": "in vivo", "details": "Zymoseptoria tritici, 100 = 100% disease control, 0 = no disease control relative to the controls", "from_the_text": "as §1"}, "[7]": {"details": "read-out: % inhibition Obsd. (Test N1)"}, "[8]": {"details": "read-out: % inhibition Obsd. (Test N2)"}}, "note": "Like-named read-outs stand apart in the source and are kept apart here."}
{"smiles": "Cc1nn(C)c(Nc2c(F)cc(Cl)cc2F)c1-c1ccc(F)cc1Cl", "note": "[Compound 81, N-(4-chloro-2,6-difluorophenyl)-4-(2-chloro-4-fluorophenyl)-1,3-dimethyl-1H-pyrazole-5-amine]", "values": [{"measurement": "pest or weed control at 200 µg/mL", "setting": "[1]", "value": 99, "unit": "%"}, {"measurement": "pest or weed control at 200 µg/mL", "setting": "Phytophthora infestans", "value": 0, "unit": "%"}, {"measurement": "pest or weed control at 200 µg/mL", "setting": "Septoria nodorum", "value": 90, "unit": "%"}, {"measurement": "pest or weed control at 200 µg/mL", "setting": "[2]", "value": 100, "unit": "%"}, {"measurement": "pest or weed control at 200 µg/mL", "setting": "[3]", "value": 100, "unit": "%"}, {"measurement": "Test M1 Obsd, disease control rating", "setting": "Septoria tritici [4]; Compound 81 0.01 ppm alone", "value": 0, "unit": "%"}, {"measurement": "Test M2 Obsd, disease control rating", "setting": "Septoria tritici [4]; Compound 81 0.01 ppm alone", "value": 0, "unit": "%"}, {"measurement": "Test M1 Obsd, disease control rating", "setting": "Septoria tritici [4]; Compound 81 0.1 ppm alone", "value": 0, "unit": "%"}, {"measurement": "Test M2 Obsd, disease control rating", "setting": "Septoria tritici [4]; Compound 81 0.1 ppm alone", "value": 0, "unit": "%"}, {"measurement": "Test M1 Obsd, disease control rating", "setting": "Septoria tritici [4]; Compound 81 1 ppm alone", "value": 86, "unit": "%"}, {"measurement": "Test M2 Obsd, disease control rating", "setting": "Septoria tritici [4]; Compound 81 1 ppm alone", "value": 95, "unit": "%"}, {"measurement": "Test M1 Obsd, disease control rating", "setting": "Septoria tritici [4]; Compound 81 10 ppm alone", "value": 100, "unit": "%"}, {"measurement": "Test M2 Obsd, disease control rating", "setting": "Septoria tritici [4]; Compound 81 10 ppm alone", "value": 100, "unit": "%"}, {"measurement": "Test M3 Obsd disease control rating", "setting": "Septoria tritici [4]; Compound 81 alone 0.01 ppm", "value": 0, "unit": "%"}, {"measurement": "Test M4 Obsd disease control rating", "setting": "Septoria tritici [4]; Compound 81 alone 0.01 ppm", "value": 0, "unit": "%"}, {"measurement": "Test M5 Obsd disease control rating", "setting": "Septoria tritici [4]; Compound 81 alone 0.01 ppm", "value": 0, "unit": "%"}, {"measurement": "Test M3 Obsd disease control rating", "setting": "Septoria tritici [4]; Compound 81 alone 0.1 ppm", "value": 0, "unit": "%"}, {"measurement": "Test M4 Obsd disease control rating", "setting": "Septoria tritici [4]; Compound 81 alone 0.1 ppm", "value": 23, "unit": "%"}, {"measurement": "Test M5 Obsd disease control rating", "setting": "Septoria tritici [4]; Compound 81 alone 0.1 ppm", "value": 3, "unit": "%"}, {"measurement": "Test M3 Obsd disease control rating", "setting": "Septoria tritici [4]; Compound 81 alone 1 ppm", "value": 52, "unit": "%"}, {"measurement": "Test M4 Obsd disease control rating", "setting": "Septoria tritici [4]; Compound 81 alone 1 ppm", "value": 66, "unit": "%"}, {"measurement": "Test M5 Obsd disease control rating", "setting": "Septoria tritici [4]; Compound 81 alone 1 ppm", "value": 90, "unit": "%"}, {"measurement": "Test M3 Obsd disease control rating", "setting": "Septoria tritici [4]; Compound 81 alone 10 ppm", "value": 100, "unit": "%"}, {"measurement": "Test M4 Obsd disease control rating", "setting": "Septoria tritici [4]; Compound 81 alone 10 ppm", "value": 100, "unit": "%"}, {"measurement": "Test M5 Obsd disease control rating", "setting": "Septoria tritici [4]; Compound 81 alone 10 ppm", "value": 100, "unit": "%"}, {"measurement": "pest or weed control at 200 µg/mL", "setting": "Alternaria solani", "value": 99, "unit": "%"}, {"measurement": "inhibition at 0.00032 µM", "setting": "Septoria tritici [5]; [7]", "value": 9, "unit": "%"}, {"measurement": "inhibition at 0.00032 µM", "setting": "Septoria tritici [5]; [8]", "value": 0, "unit": "%"}, {"measurement": "inhibition at 0.0016 µM", "setting": "Septoria tritici [5]; [7]", "value": 5, "unit": "%"}, {"measurement": "inhibition at 0.0016 µM", "setting": "Septoria tritici [5]; [8]", "value": 0, "unit": "%"}, {"measurement": "inhibition at 0.008 µM", "setting": "Septoria tritici [5]; [7]", "value": 10, "unit": "%"}, {"measurement": "inhibition at 0.008 µM", "setting": "Septoria tritici [5]; [8]", "value": 29, "unit": "%"}, {"measurement": "inhibition at 0.04 µM", "setting": "Septoria tritici [5]; [7]", "value": 93.5, "unit": "%"}, {"measurement": "inhibition at 0.04 µM", "setting": "Septoria tritici [5]; [8]", "value": 93.5, "unit": "%"}, {"measurement": "inhibition at 0.2 µM", "setting": "Septoria tritici [5]; [7]", "value": 98, "unit": "%"}, {"measurement": "inhibition at 0.2 µM", "setting": "Septoria tritici [5]; [8]", "value": 96, "unit": "%"}, {"measurement": "pest or weed control at 200 µg/mL", "setting": "Botrytis cinerea", "value": 100, "unit": "%"}, {"measurement": "pest or weed control at 200 µg/mL", "setting": "Septoria tritici [6]", "value": 100, "unit": "%"}]}
